Laboratory results taken from patent US11001569B2, “6-membered heteroaromatic substituted cyanoindoline derivatives as NIK inhibitors” (Janssen Pharmaceutica NV, priority 2016, dated 2021).
Like-named read-outs stand apart in the source and are kept apart here.

Experiments:
[1] = target: recombinant human NF-kappaB-inducing Kinase (NIK/MAP3K14) (Homo sapiens, UniProt Q99558); experiment: Inhibition of auto-phosphorylation of recombinant human NIK/MAP3K14 activity (AlphaScreen); type: biochemical; conditions: 25 microM ATP, averaged over all measurements on all batches
Protocol: Pharmacological Part Biological assay A Inhibition of auto-phosphorylation of recombinant human NF-kappaB-inducing Kinase (NIK/MAP3K14) Activity (AlphaScreen®)
NIK/MAP3K14 auto-phosphorylation activity was measured using the AlphaScreen® (αscreen) format (Perkin Elmer). All compounds tested were dissolved in dimethyl sulfoxide (DMSO) and further dilutions were made in assay buffer. Final DMSO concentration was 1% (v/v) in assays. Assay buffer was 50 mM Tris pH 7.5 containing 1 mM EGTA (ethylene glycol tetraacetic acid), 1 mM DTT (dithiothreitol), 0.1 mM Na3VO4, 5 mM MgCl2, 0.01% Tween® 20. Assays were carried out in 384 well Alphaplates (Perkin Elmer). […] Incubations were initiated by addition of GST-tagged NIK/MAP3K14 enzyme, carried out for 1 h at 25° C. and terminated by addition of stop buffer containing anti-phospho-IKK Ser176/180 antibody. Protein A Acceptor and Glutathione-Donor beads were added before reading using an EnVision® Multilabel Plate Reader (Perkin Elmer). Signal obtained in the wells containing blank samples was subtracted from all other wells and IC50's were determined by fitting a sigmoidal curve to % inhibition of control versus Log10 compound concentration.

[2] = tested on: JJN-3 (NIK translocated) multiple myeloma cells; experiment: Antiproliferative activity on JJN-3 multiple myeloma cells (CellTiter-Glo); type: cell-based, human; conditions: JJN-3 (NIK translocated) cells, 96 hr treatment, averaged values, read-out: JJN-3 Proliferation inhibition (IC50 (nM))
Protocol: (§1) Determination of Antiproliferative Activity on JJN-3 (NIK Translocated) and KMS12-BM (NIK WT) Multiple Myeloma Cells
(§2) All compounds tested were dissolved in DMSO and further dilutions were made in culture medium. Final DMSO concentration was 0.3% (v/v) in cell proliferation assays. Viability was assessed using CellTiter-Glo cell viability assay kit (Promega). […] Cells were routinely kept as suspension cells at 37° C. in a humidified 5% CO2 atmosphere. Cells were passaged at a seeding density of 0.2×10^6/ml twice a week. Cells were seeded in black tissue culture treated 96-well plates (Perkin Elmer). Densities used for plating ranged from 15000 (JJN3) to 20000 (KMS12BM) cells per well in a total volume of 135 μl medium. Drugs and/or solvents were added (15 μl) to a final volume of 150 μl. Following 96 hr of treatment, plates were removed from the incubator and allowed to equilibrate to room temperature for approx 10 min. 75 μl CellTiter-Glo reagent was added to each well that was then covered (Perkin Elmer Topseal) and shaken on plate shaker for 10 min. Luminescence was measured on a HTS Topcount (Perkin Elmer). […] For initial screening purposes, compounds were tested using a 9 point dilution curve (serial 1:3 dilutions). For each experiment, controls (containing no drug) and a blank incubation (containing cells read at the time of compound addition) were run in parallel. The blank value was subtracted from all control and sample values. For each sample, the mean value for cell growth (in relative light units) was expressed as a percentage of the mean value for cell growth of the control.

[3] = tested on: KMS12-BM (NIK WT) multiple myeloma cells; experiment: Antiproliferative activity on KMS12-BM multiple myeloma cells (CellTiter-Glo); type: cell-based, human; conditions: 96 hr treatment, averaged values, read-out: KMS-12 Proliferation inhibition (IC50 (nM))
Protocol: as §1, §2

Sequence of recombinant human NF-kappaB-inducing Kinase (NIK/MAP3K14) (Q99558 whole entry): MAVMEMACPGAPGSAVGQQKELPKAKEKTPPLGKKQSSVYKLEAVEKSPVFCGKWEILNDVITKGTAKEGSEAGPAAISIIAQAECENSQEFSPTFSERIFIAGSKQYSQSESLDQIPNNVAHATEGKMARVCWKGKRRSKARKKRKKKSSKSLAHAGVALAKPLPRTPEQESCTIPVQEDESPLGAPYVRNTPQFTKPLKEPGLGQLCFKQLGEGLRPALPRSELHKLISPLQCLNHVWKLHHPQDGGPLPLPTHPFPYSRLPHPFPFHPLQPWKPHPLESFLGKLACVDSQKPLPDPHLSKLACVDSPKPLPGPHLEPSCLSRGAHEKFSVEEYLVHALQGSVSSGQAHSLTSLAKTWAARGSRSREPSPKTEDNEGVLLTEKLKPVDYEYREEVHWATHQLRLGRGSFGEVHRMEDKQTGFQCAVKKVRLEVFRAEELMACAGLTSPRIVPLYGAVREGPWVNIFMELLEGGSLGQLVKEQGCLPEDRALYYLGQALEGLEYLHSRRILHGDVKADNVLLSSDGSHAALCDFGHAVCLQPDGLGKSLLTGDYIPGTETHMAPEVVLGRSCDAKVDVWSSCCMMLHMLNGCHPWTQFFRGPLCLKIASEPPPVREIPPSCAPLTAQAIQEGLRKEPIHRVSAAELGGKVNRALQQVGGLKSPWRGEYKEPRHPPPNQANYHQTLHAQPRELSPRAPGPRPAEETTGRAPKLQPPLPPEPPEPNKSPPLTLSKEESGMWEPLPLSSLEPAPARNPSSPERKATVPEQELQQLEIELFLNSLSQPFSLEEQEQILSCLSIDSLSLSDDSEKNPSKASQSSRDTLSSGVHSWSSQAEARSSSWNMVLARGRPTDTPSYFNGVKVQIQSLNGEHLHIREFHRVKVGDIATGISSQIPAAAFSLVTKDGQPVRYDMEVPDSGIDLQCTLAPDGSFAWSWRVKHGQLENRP

| SMILES | IC50 [1] [nM] | IC50 ([2]; Homo sapiens, JJN-3, 96 h) [nM] | IC50 ([3]; Homo sapiens, KMS-12-BM, 96 h) [nM] | melting point [°C] | IC50 [2] [nM] | IC50 [3] [nM] |
| --- | --- | --- | --- | --- | --- | --- |
| COc1ncc(Cl)cc1Nc1nccc(-c2cc(C#N)c3c(c2)[C@](C)(COC(=O)[C@H](C)N)CN3)n1 [Compound 109] | 38 | 794 | > 10000 | 171 | – | – |
| COCCNc1nc(OC(C)C)c(Nc2nccc(-c3cc(C#N)c4c(c3)C(C)(CO)CN4)n2)cc1Cl (stereo not shown) [Compound 13] | 28.8 | 447 | > 10000 | 125 | – | – |
| Cc1ncc(Nc2nccc(-c3cc(C#N)c4c(c3)[C@@](C)(CO)CN4)n2)c(OCC2CCCO2)n1 (single isomer, unassigned) [Compound 137] | 16.2 | – | > 10000 | 200 | 525 | – |
| COc1ncccc1Nc1nccc(-c2cc(C#N)c3c(c2)C(C)(COCCN2CCCC2)CN3)n1 (stereo not shown) [Compound 118] | 64.6 | 4570 | 4070 | 88 | – | – |
| COc1ncccc1Nc1nccc(-c2cc(C#N)c3c(c2)[C@@](C)(CO)CN3)n1 [Compound 6] | 2.4 | ~245 | > 10000 | 241 | – | – |
| COCCOc1nc(C2CC2)ccc1Nc1nccc(-c2cc(C#N)c3c(c2)[C@@](C)(CO)CN3)n1 [Compound 62] | 29.5 | 977 | > 10000 | 117 | – | – |
| COc1ncc(F)cc1Nc1nccc(-c2cc(C#N)c3c(c2)[C@@](C)(CO)CN3)n1 [Compound 36] | 3.3 | 288 | > 10000 | > 250 | – | – |
| Cc1ccnc(Nc2nccc(-c3cc(C#N)c4c(c3)C(C)(CO)CN4)n2)n1 (stereo not shown) [Compound 126] | 148 | 2510 | > 10000 | 227 | – | – |
| CCOc1ncccc1Nc1nccc(-c2cc(C#N)c3c(c2)C(C)(CO)CN3)n1 (stereo not shown) [Compound 16] | 3.8 | 245 | > 10000 | 248 | – | – |
| Cc1cnc(OCC2CCCN2C2CC2)c(Nc2nccc(-c3cc(C#N)c4c(c3)[C@@](C)(CO)CN4)n2)c1 (mixture of isomers) [Compound 175] | 19.5 | – | – | – | – | – |
| Cc1nccnc1Nc1nccc(-c2cc(C#N)c3c(c2)[C@@](C)(CO)CN3)n1 [Compound 163] | 34.7 | 3160 | ~5010 | – | – | – |
| Cc1nc(C)c(Cl)c(Nc2nccc(-c3cc(C#N)c4c(c3)[C@@](C)(CO)CN4)n2)n1 [Compound 132] | 12.9 | 3310 | > 10000 | – | – | – |
| Cc1nc(Nc2nccc(-c3cc(C#N)c4c(c3)[C@@](C)(CO)CN4)n2)cc(N2CCOCC2)n1 [Compound 134] | 38.9 | > 10000 | > 10000 | – | – | – |
| COCCn1cc(Cl)cc(Nc2nccc(-c3cc(C#N)c4c(c3)[C@@](C)(CO)CN4)n2)c1=O [Compound 14i] | 1.4 | 24 | > 10000 | – | – | – |
| CN1CCC(Oc2ncc(Cl)cc2Nc2nccc(-c3cc(C#N)c4c(c3)C(C)(CO)CN4)n2)CC1 (stereo not shown) [Compound 15] | 2.9 | 24 | > 10000 | – | – | – |
| COc1ncncc1Nc1nccc(-c2cc(C#N)c3c(c2)C(C)(CO)CN3)n1 (stereo not shown) [Compound 130] | 4.6 | 468 | > 10000 | – | – | – |
| COCCOc1nc(P(C)(C)=O)ncc1Nc1nccc(-c2cc(C#N)c3c(c2)[C@@](C)(CO)CN3)n1 [Compound 139] | 17.8 | ~10000 | > 10000 | – | – | – |
| CC1(CO)CNc2c(C#N)cc(-c3ccnc(Nc4ccc(N5CCNCC5)cn4)n3)cc21 (stereo not shown) [Compound 32] | 6.5 | 89 | 437 | – | – | – |
| COC[C@@]1(C)CNc2c(C#N)cc(-c3ccnc(Nc4cc(Cl)cnc4C)n3)cc21 [Compound 145] | 9.5 | – | – | – | 479 | 4790 |
| Cc1cc(Nc2nccc(-c3cc(C#N)c4c(c3)[C@@](C)(CO)CN4)n2)c(C)nc1OC1CCN(C2CC2)CC1 [Compound 176] | 4.8 | – | – | – | – | – |
| Cc1ncc(Nc2nccc(-c3cc(C#N)c4c(c3)[C@@](C)(CO)CN4)n2)c(OCC2CCCO2)n1 (single isomer, unassigned) [Compound 138] | 29.5 | – | – | – | 1510 | > 10000 |
| COc1nc(C(F)(F)F)ccc1Nc1nccc(-c2cc(C#N)c3c(c2)[C@@](C)(CO)CN3)n1 [Compound 54] | 39.8 | 4070 | > 10000 | – | – | – |
| Cc1ncc(Nc2nccc(-c3cc(C#N)c4c(c3)[C@@](C)(CO)CN4)n2)c(OCC(=O)N(C)C)n1 [Compound 144] | 24 | > 10000 | > 10000 | – | – | – |
| Cc1ncc(Nc2nccc(-c3cc(C#N)c4c(c3)[C@@](C)(CO)CN4)n2)c(OCC2(C)COC2)n1 [Compound 142] | 15.1 | 6310 | > 10000 | – | – | – |
| COc1nc(C2=CCOCC2)ncc1Nc1nccc(-c2cc(C#N)c3c(c2)[C@@](C)(CO)CN3)n1 [Compound 143] | 7.8 | 347 | > 10000 | – | – | – |
| Cc1cnc(OCC2(C)COC2)c(Nc2nccc(-c3cc(C#N)c4c(c3)[C@@](C)(CO)CN4)n2)c1 [Compound 147] | 7.9 | – | – | > 260 | – | – |
| COCCOc1ncccc1Nc1nccc(-c2cc(C#N)c3c(c2)[C@@](C)(CO)CN3)n1 [Compound 33] | 4.2 | 298 | > 10000 | – | – | – |
| C[C@]1(CO)CNc2c(C#N)cc(-c3ccnc(Nc4cc(Cl)cnc4OC4CCOCC4)n3)cc21 [Compound 22] | 10.2 | 417 | > 10000 | – | – | – |
| COc1nnc(Cl)cc1Nc1nccc(-c2cc(C#N)c3c(c2)C(C)(CO)CN3)n1 (stereo not shown) [Compound 124] | 3.8 | ~144 | > 10000 | – | – | – |
| Cc1nc(Nc2nccc(-c3cc(C#N)c4c(c3)[C@@](C)(CO)CN4)n2)cc(N2CCN(CCO)CC2)n1 [Compound 133] | 22.9 | ~1950 | > 10000 | – | – | – |
